In PubChem BioAssay (NCI):
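Five concentrations, 48 hours, 96-well plates. GI50: concentration for 50% inhibition of growth. TGI: concentration producing complete growth inhibition.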

Experiments:
Assay in all cases: NCI-60 cell line screen, 48 h
786-0 renal = system: 786-0 renal
A498 renal = system: A498 renal
A549 NSCLC = system: A549 NSCLC
ACHN renal = system: ACHN renal
BT-549 breast = system: BT-549 breast
CAKI-1 renal = system: CAKI-1 renal
CCRF-CEM leukemia = system: CCRF-CEM leukemia
COLO 205 colon = system: COLO 205 colon
DU-145 prostate = system: DU-145 prostate
EKVX NSCLC = system: EKVX NSCLC
HCC-2998 colon = system: HCC-2998 colon
HCT-116 colon = system: HCT-116 colon
HCT-15 colon = system: HCT-15 colon
HL-60(TB) leukemia = system: HL-60(TB) leukemia
HOP-62 NSCLC = system: HOP-62 NSCLC
HOP-92 NSCLC = system: HOP-92 NSCLC
HS 578T breast = system: HS 578T breast
HT29 colon = system: HT29 colon
IGROV1 ovarian = system: IGROV1 ovarian
K-562 leukemia = system: K-562 leukemia
KM12 colon = system: KM12 colon
LOX IMVI melanoma = system: LOX IMVI melanoma
M14 melanoma = system: M14 melanoma
MALME-3M melanoma = system: MALME-3M melanoma
MDA-MB-231 breast = system: MDA-MB-231 breast
MDA-MB-435 = system: MDA-MB-435
MOLT-4 leukemia = system: MOLT-4 leukemia
NCI-H226 lung = system: NCI-H226 lung
NCI-H23 lung = system: NCI-H23 lung
NCI-H460 lung = system: NCI-H460 lung
OVCAR-3 ovarian = system: OVCAR-3 ovarian
OVCAR-5 ovarian = system: OVCAR-5 ovarian
OVCAR-8 ovarian = system: OVCAR-8 ovarian
PC-3 prostate = system: PC-3 prostate
RPMI-8226 leukemia = system: RPMI-8226 leukemia
RXF 393 renal = system: RXF 393 renal
SF-268 CNS = system: SF-268 CNS
SF-295 CNS = system: SF-295 CNS
SF-539 CNS = system: SF-539 CNS
SK-MEL-2 melanoma = system: SK-MEL-2 melanoma
SK-MEL-28 melanoma = system: SK-MEL-28 melanoma
SK-MEL-5 melanoma = system: SK-MEL-5 melanoma
SK-OV-3 ovarian = system: SK-OV-3 ovarian
SN12C renal = system: SN12C renal
SNB-19 CNS = system: SNB-19 CNS
SNB-75 CNS = system: SNB-75 CNS
SR leukemia = system: SR leukemia
SW-620 colon = system: SW-620 colon
T-47D breast = system: T-47D breast
TK-10 renal = system: TK-10 renal
U251 CNS = system: U251 CNS
UACC-257 melanoma = system: UACC-257 melanoma
UACC-62 melanoma = system: UACC-62 melanoma
UO-31 renal = system: UO-31 renal

Question: How did the GI50 (786-0 renal) turn out when `COc1cc2nc(-c3cnc(N(C)C)nc3)nc(NC3CCN(Cc4ccccc4)CC3)c2cc1OC` was run?
Answer: 1800 nM

Question: And the TGI (786-0 renal)?
Answer: 3.81 µM

Question: And the GI50 (A498 renal)?
Answer: 1570 nM

Question: What about the TGI (A498 renal) of the same molecule?
Answer: 2940 nM

Question: And the GI50 (A549 NSCLC)?
Answer: 351 nM

Question: And the TGI (A549 NSCLC)?
Answer: 1790 nM

Question: And the GI50 (ACHN renal)?
Answer: 927 nM

Question: And the TGI (ACHN renal)?
Answer: 2170 nM

Question: And the GI50 (BT-549 breast)?
Answer: 1710 nM

Question: What about the TGI (BT-549 breast) of the same molecule?
Answer: 3.43 µM

Question: What about the GI50 (CAKI-1 renal) of the same molecule?
Answer: 1440 nM

Question: What about the TGI (CAKI-1 renal) of the same molecule?
Answer: 2810 nM

Question: What about the GI50 (CCRF-CEM leukemia) of the same molecule?
Answer: 707 nM

Question: What about the TGI (CCRF-CEM leukemia) of the same molecule?
Answer: 3.6 µM

Question: And the GI50 (COLO 205 colon)?
Answer: 637 nM

Question: What about the TGI (COLO 205 colon) of the same molecule?
Answer: 2090 nM

Question: What about the GI50 (DU-145 prostate) of the same molecule?
Answer: 1570 nM

Question: And the TGI (DU-145 prostate)?
Answer: 3.05 µM

Question: And the GI50 (EKVX NSCLC)?
Answer: 1750 nM

Question: And the TGI (EKVX NSCLC)?
Answer: 3.66 µM

Question: And the GI50 (HCC-2998 colon)?
Answer: 1790 nM

Question: What about the TGI (HCC-2998 colon) of the same molecule?
Answer: 3.25 µM

Question: What about the GI50 (HCT-116 colon) of the same molecule?
Answer: 316 nM

Question: What about the TGI (HCT-116 colon) of the same molecule?
Answer: 1320 nM

Question: What about the GI50 (HCT-15 colon) of the same molecule?
Answer: 1010 nM

Question: What about the TGI (HCT-15 colon) of the same molecule?
Answer: 2390 nM

Question: And the GI50 (HL-60(TB) leukemia)?
Answer: 1510 nM

Question: And the TGI (HL-60(TB) leukemia)?
Answer: 3.75 µM

Question: What about the GI50 (HOP-62 NSCLC) of the same molecule?
Answer: 1690 nM

Question: What about the TGI (HOP-62 NSCLC) of the same molecule?
Answer: 3.48 µM

Question: And the GI50 (HOP-92 NSCLC)?
Answer: 1030 nM

Question: What about the TGI (HOP-92 NSCLC) of the same molecule?
Answer: 2460 nM

Question: And the GI50 (HS 578T breast)?
Answer: 1710 nM

Question: And the TGI (HS 578T breast)?
Answer: 3.99 µM

Question: What about the GI50 (HT29 colon) of the same molecule?
Answer: 1080 nM

Question: What about the TGI (HT29 colon) of the same molecule?
Answer: 2540 nM

Question: What about the GI50 (IGROV1 ovarian) of the same molecule?
Answer: 1730 nM

Question: And the TGI (IGROV1 ovarian)?
Answer: 3.43 µM

Question: And the GI50 (K-562 leukemia)?
Answer: 369 nM

Question: What about the TGI (K-562 leukemia) of the same molecule?
Answer: 1950 nM

Question: What about the GI50 (KM12 colon) of the same molecule?
Answer: 1720 nM

Question: What about the TGI (KM12 colon) of the same molecule?
Answer: 3.53 µM

Question: What about the GI50 (LOX IMVI melanoma) of the same molecule?
Answer: 1520 nM

Question: And the TGI (LOX IMVI melanoma)?
Answer: 3.2 µM

Question: And the GI50 (M14 melanoma)?
Answer: 1500 nM

Question: And the TGI (M14 melanoma)?
Answer: 3.06 µM

Question: And the GI50 (MALME-3M melanoma)?
Answer: 1660 nM

Question: And the TGI (MALME-3M melanoma)?
Answer: 3.42 µM

Question: And the GI50 (MDA-MB-231 breast)?
Answer: 1570 nM

Question: And the TGI (MDA-MB-231 breast)?
Answer: 3.4 µM

Question: And the GI50 (MDA-MB-435)?
Answer: 1380 nM

Question: What about the TGI (MDA-MB-435) of the same molecule?
Answer: 2810 nM

Question: What about the GI50 (MOLT-4 leukemia) of the same molecule?
Answer: 2280 nM

Question: And the TGI (MOLT-4 leukemia)?
Answer: 6.36 µM

Question: What about the GI50 (NCI-H226 lung) of the same molecule?
Answer: 1730 nM

Question: And the TGI (NCI-H226 lung)?
Answer: 3.92 µM

Question: And the GI50 (NCI-H23 lung)?
Answer: 1690 nM

Question: What about the TGI (NCI-H23 lung) of the same molecule?
Answer: 4.11 µM

Question: And the GI50 (NCI-H460 lung)?
Answer: 412 nM

Question: What about the TGI (NCI-H460 lung) of the same molecule?
Answer: 1700 nM

Question: And the GI50 (OVCAR-3 ovarian)?
Answer: 1690 nM

Question: What about the TGI (OVCAR-3 ovarian) of the same molecule?
Answer: 3.27 µM

Question: What about the GI50 (OVCAR-5 ovarian) of the same molecule?
Answer: 1780 nM

Question: And the TGI (OVCAR-5 ovarian)?
Answer: 3.46 µM

Question: And the GI50 (OVCAR-8 ovarian)?
Answer: 1680 nM

Question: And the TGI (OVCAR-8 ovarian)?
Answer: 3.97 µM

Question: And the GI50 (PC-3 prostate)?
Answer: 1460 nM

Question: And the TGI (PC-3 prostate)?
Answer: 3.09 µM

Question: And the GI50 (RPMI-8226 leukemia)?
Answer: 1220 nM

Question: And the TGI (RPMI-8226 leukemia)?
Answer: 3.67 µM

Question: What about the GI50 (RXF 393 renal) of the same molecule?
Answer: 1630 nM

Question: And the TGI (RXF 393 renal)?
Answer: 3.49 µM

Question: What about the GI50 (SF-268 CNS) of the same molecule?
Answer: 1730 nM

Question: What about the TGI (SF-268 CNS) of the same molecule?
Answer: 3.72 µM

Question: And the GI50 (SF-295 CNS)?
Answer: 1540 nM

Question: And the TGI (SF-295 CNS)?
Answer: 2970 nM

Question: What about the GI50 (SF-539 CNS) of the same molecule?
Answer: 1720 nM

Question: And the TGI (SF-539 CNS)?
Answer: 3.25 µM

Question: What about the GI50 (SK-MEL-2 melanoma) of the same molecule?
Answer: 1800 nM

Question: What about the TGI (SK-MEL-2 melanoma) of the same molecule?
Answer: 3.45 µM

Question: And the GI50 (SK-MEL-28 melanoma)?
Answer: 1830 nM

Question: What about the TGI (SK-MEL-28 melanoma) of the same molecule?
Answer: 3.58 µM

Question: What about the GI50 (SK-MEL-5 melanoma) of the same molecule?
Answer: 1580 nM

Question: What about the TGI (SK-MEL-5 melanoma) of the same molecule?
Answer: 2950 nM

Question: What about the GI50 (SK-OV-3 ovarian) of the same molecule?
Answer: 1700 nM

Question: What about the TGI (SK-OV-3 ovarian) of the same molecule?
Answer: 3.08 µM

Question: What about the GI50 (SN12C renal) of the same molecule?
Answer: 1770 nM

Question: And the TGI (SN12C renal)?
Answer: 3.49 µM

Question: What about the GI50 (SNB-19 CNS) of the same molecule?
Answer: 1200 nM

Question: What about the TGI (SNB-19 CNS) of the same molecule?
Answer: 3.1 µM

Question: And the GI50 (SNB-75 CNS)?
Answer: 1430 nM

Question: What about the TGI (SNB-75 CNS) of the same molecule?
Answer: 2860 nM

Question: What about the GI50 (SR leukemia) of the same molecule?
Answer: 273 nM

Question: What about the TGI (SR leukemia) of the same molecule?
Answer: 938 nM

Question: And the GI50 (SW-620 colon)?
Answer: 442 nM

Question: And the TGI (SW-620 colon)?
Answer: 2000 nM

Question: And the GI50 (T-47D breast)?
Answer: 1810 nM

Question: And the TGI (T-47D breast)?
Answer: 4.14 µM

Question: What about the GI50 (TK-10 renal) of the same molecule?
Answer: 1630 nM

Question: And the TGI (TK-10 renal)?
Answer: 3.08 µM

Question: And the GI50 (U251 CNS)?
Answer: 222 nM

Question: What about the TGI (U251 CNS) of the same molecule?
Answer: 573 nM

Question: And the GI50 (UACC-257 melanoma)?
Answer: 1790 nM

Question: What about the TGI (UACC-257 melanoma) of the same molecule?
Answer: 3.66 µM

Question: And the GI50 (UACC-62 melanoma)?
Answer: 1730 nM

Question: And the TGI (UACC-62 melanoma)?
Answer: 3.29 µM

Question: And the GI50 (UO-31 renal)?
Answer: 1490 nM

Question: And the TGI (UO-31 renal)?
Answer: 3.05 µM
